The values that follow come from patent US11788086B2, “Antitumor compounds and tumor diagnosis” (CBMED GMBH CENTER FOR BIOMARKER RESEARCH IN MEDICINE, priority 2016, dated 2023).

The test system of one test is eIF protein expression. As to the kind of experiment: eIF protein expression after chemosensitivity testings in murine GBM xenograft models (immunoblot). Format: in vivo, mice. The following applies: murine GBM xenografts; for eIF protein expression (eIF subunits overall): compared to PBS treated controls. Here is the method:
(§1) Protein expression was analyzed in NP-40 tissue lysates. Therefore normalized protein amounts were loaded onto 8% or 12.5% polyacrylamide gels in consideration of the molecular mass of the protein of interest. Electrophoresis was performed for 1.5 h at 120 V in SDS Running Buffer with the Mini-vertical electrophoresis unit (Amersham Biosciences). Then separated proteins were transferred to PVDF-membranes (Immobilin-P Transfer Membran; Millipore) using a Semi Dry Blotting Unit (JH BioInnovations) at 160 mA for 1.5 hours. Membranes were blocked with 5% non-fat dried milk (AppliChem) in Tris-buffered saline-Tween (TBS-T; 0.2 M Tris, 1.4 M NaCl, pH 7.4, 0.1% Tween) for 1 h, followed by a primary antibody incubation (overnight at 4° C.) and an 1 h secondary antibody incubation (1:3000 dilution, GE Healthcare). All primary antibodies were diluted in 5% bovine serum albumin diluted in TBS-T. Between incubation steps membranes were washed 3 times in TBS-T for 10 min. Membranes were then developed with an enhanced chemiluminescence (ECL) Western blotting system (GE healthcare) using the ChemiImager™ System (Alpha Innotech). Immunoblots were evaluated semi-quantitative using ImageJ (Schneider C A, et al. Nat Meth. 9(2012):671-5) software for densitometric analyses. Relative densities were then calculated by normalizing density values for each protein to the loading control (Actin).
(§2) Samples of patients suffering from colon cancer or GBMs were transplanted into 3 to 6 immunodeficient NOD/SCID mice. The tumor growth was monitored in a daily rhythm. At a size of about 1 cm^3, the tumors were removed and transferred to naive NMRI:nu/nu mice for chemosensitivity testing. Xenotransplanted carcinomas and metastases were treated with different standard and novel chemotherapeutic drugs. During chemosensitivity testing the tumor volume was measured regularly and used to generate growth curves. After a time period of 30-40 days the tumors were excised and analyzed by Immunoblot and Real-Time-PCR. Chemosensitivity data were kindly provided by EPO Berlin-Buch GmbH. Tumor volume of treatment in comparison to control (T/C) was calculated in percent.
Additionally to single treatments with each compound, combination therapies for Temozolomide/Everolimus, Temozolomide/Regorafenib and Temozolomide/Thalidomide were investigated.
Background: Immunoblotting shows a protein as a band on a membrane.

A further test concerns rectum cancer PDX models. As to the kind of experiment: Protein expression in rectum cancer PDX models under chemotherapeutic treatment. Format: in vivo, mice. The following applies: not statistically significant. Here is the method: as §1, §2
To analyze protein expression of different eIF subunits under chemotherapeutic treatment, 4 rectum primary carcinoma (RPC) PDX models and 2 rectum metastasis (RM) PDX model were generated.

Another test deals with hepatoma cell. The note with it: in vivo and in vitro; cited from earlier work.
A further test deals with colon cancer PDX models. The experiment in a line: Protein expression in colon cancer patients derived xenograft (PDX) models under chemotherapeutic treatment. Format: in vivo, mice. The note with it: not statistically significant. Here is the method: Protein expression was analyzed in NP-40 tissue lysates. Therefore normalized protein amounts were loaded onto 8% or 12.5% polyacrylamide gels in consideration of the molecular mass of the protein of interest. Electrophoresis was performed for 1.5 h at 120 V in SDS Running Buffer with the Mini-vertical electrophoresis unit (Amersham Biosciences). Then separated proteins were transferred to PVDF-membranes (Immobilin-P Transfer Membran; Millipore) using a Semi Dry Blotting Unit (JH BioInnovations) at 160 mA for 1.5 hours. […] Immunoblots were evaluated semi-quantitative using ImageJ (Schneider C A, et al. Nat Meth. 9(2012):671-5) software for densitometric analyses. Relative densities were then calculated by normalizing density values for each protein to the loading control (Actin).
Samples of patients suffering from colon cancer or GBMs were transplanted into 3 to 6 immunodeficient NOD/SCID mice. The tumor growth was monitored in a daily rhythm. […] During chemosensitivity testing the tumor volume was measured regularly and used to generate growth curves. After a time period of 30-40 days the tumors were excised and analyzed by Immunoblot and Real-Time-PCR. […] Tumor volume of treatment in comparison to control (T/C) was calculated in percent.

Another test deals with tumor cells. The note with it: eIF5A2 siRNA combined with GC7, HCC; cited from earlier work.
The mark [1] stands for this setting: rectum metastasis (RM) PDX models.

Turning to `O=C1CCC(N2C(=O)c3ccccc3C2=O)C(=O)N1` (stereo not shown) [Thalidomide], in the test on eIF protein expression, the “eIF protein expression (eIF subunits overall)” value (“eIF protein expression” below) is reported as “almost no difference”. The eIF3C protein expression result with eIF protein expression (vs PBS control) is “upregulated”.
Take `COC(=O)c1ccc2c(c1)NC(=O)/C2=C(\Nc1ccc(N(C)C(=O)CN2CCN(C)CC2)cc1)c1ccccc1` [Nintedanib]: in the test with rectum cancer PDX models (setting [1]), the eIF3A protein expression result is “trend in downregulation” and the eIF3J protein expression entry is given as “tendency to be downregulated”.
Regarding `CNC(=O)c1cc(Oc2ccc(NC(=O)Nc3ccc(Cl)c(C(F)(F)F)c3)cc2)ccn1` [Sorafenib], in the test with hepatoma cell, the Mcl-1 protein entry is reported as “reduce”, the “RAF/MEK/ERK signaling transduction pathway” value is “inhibit”, the eIF4E phosphorylation level entry is “reduce” and the hepatoma cell apoptosis result was “induce”. For the same compound, the “eIF protein expression” value in the test with eIF protein expression is reported as “almost no difference”. In addition, the eIF3C protein expression entry with eIF protein expression (vs PBS control) is recorded as “upregulated”.
As to `CC[C@@H](C(=O)[C@@H](C)[C@@H](O)[C@H](C)[C@@H]1O[C@@H]([C@@H](CC)C(=O)O)CC[C@@H]1C)[C@H]1O[C@]2(C=C[C@@H](O)[C@]3(CC[C@@](C)([C@H]4CC[C@](O)(CC)[C@H](C)O4)O3)O2)[C@H](C)C[C@@H]1C` [Salinomycin], the “eIF protein expression” value with eIF protein expression is listed as “almost no difference”. For the same compound, the eIF3C protein expression entry in the test with eIF protein expression (vs PBS control) is “upregulated”.
As for `CCc1c2c(nc3ccc(OC(=O)N4CCC(N5CCCCC5)CC4)cc13)-c1cc3c(c(=O)n1C2)COC(=O)[C@]3(O)CC` [Irinotecan], the eIF3A protein expression result in the test with rectum cancer PDX models (setting [1]) is “trend in downregulation”. Besides, the “eIF protein expression” value in the test on eIF protein expression is on record as “differential effects”.
As to `O=c1[nH]cc(F)c(=O)[nH]1` [5-FU], the eIF3A protein expression result in the test with rectum cancer PDX models (setting [1]) is recorded as “trend in downregulation”.
On to “Bevacizumab: Anti-VEGF monoclonal antibody (angiogenesis inhibitor)”, for which the eIF3A protein expression entry with rectum cancer PDX models (setting [1]) was “trend in downregulation”. The eIF3K protein expression entry in the test with eIF protein expression (vs PBS control) was “down-regulation”. Moreover, the PTEN protein expression result in the test on colon cancer PDX models (CM PDX model) is reported as “seemed to be decreased”.
Regarding `CNC(=O)c1cc(Oc2ccc(NC(=O)Nc3ccc(Cl)c(C(F)(F)F)c3)c(F)c2)ccn1` [Regorafenib], the eIF3A protein expression entry with rectum cancer PDX models (setting [1]) was “trend in downregulation”. Moreover, the “eIF protein expression” value with eIF protein expression is reported as “totally down-regulated”.
Turning to `O=C1[O][Pt]2([NH][C@@H]3CCCC[C@H]3[NH]2)[O]C1=O` [Oxaliplatin], the eIF4G protein expression result in the test on rectum cancer PDX models (rectum primary carcinoma (RPC) PDX) is given as “increased”. The mTOR protein expression entry with colon cancer PDX models (colon primary carcinoma (CPC) PDX models, vs untreated control) was “trend to be upregulated”.
`NCCCCCCCN=C(N)N` [GC7]: in the test with tumor cells, the “migration ability of tumor cells” value is listed as “effectively reduces”.
In the case of `CO[C@H]1C[C@@H]2CC[C@@H](C)[C@@](O)(O2)C(=O)C(=O)N2CCCC[C@H]2C(=O)O[C@H]([C@H](C)C[C@@H]2CC[C@@H](OCCO)[C@H](OC)C2)CC(=O)[C@H](C)/C=C(\C)[C@@H](O)[C@@H](OC)C(=O)[C@H](C)C[C@H](C)/C=C/C=C/C=C/1C` [Everolimus], the “eIF protein expression” value with eIF protein expression was “almost no difference”. For the same compound, in the test on eIF protein expression (vs PBS control), the eIF3C protein expression entry is listed as “upregulated”.
